Data taken from US9402821B2, “Methods and pharmaceutical compositions for treatment of cystic fibrosis” (INSERM (Institut National de la sante et de la Recherche …, priority 2012, dated 2016).
“Also recorded” adds a separate entry of the source. Like-named read-outs stand apart in the source and are kept apart here.

Columns and labels:
[1] = target: CFTR (Homo sapiens, UniProt P13569); assay: CFTR maturation by Western blot of membrane extracts; assay type: cell-based; parameters: expressed in transfected cells; conditions: 500 μM
Experimental: B. Chloride activity in HeLa Wt cells was measured by MQAE assay, after 3 h of treatment by NSAID (500 μM) or diluent. CFTR activity was expressed in rate of UFA/sec, calculated by difference between ((Ft−F0)/t) with CFTR induction and ((Ft−F0)/t) without CFTR induction. […] C. Primary culture of human nasal epithelial cell (HNEC) grown on Snapwell filters (air-liquid interface) were exposed basolaterally to sulindac (500 μM) or vehicle for 2 h and immediately mounted into a voltage-clamp system to bioelectric measurements. Short circuit current was measured with addition of amiloride to evaluated amiloride sensitive transport or with forskolin and IBMX for induced cAMP-dependent Cl secretion.
To study the CFTR protein present at the cell membrane, a protocol of purification by differential centrifugations was used. CFTR wt and delta F508 HeLa cells (2×10^5 cells/cm^2) were lysed with hypotonic lysis buffer (10 mM de KCl, 1 mM de MgCl2, 10 mM Hepes pH 7, 4 and protease inhibitor). Mechanic lysis of cells was realized with minimum 10 strokes of a 26G syringe. Samples were centrifuged 10 min at 3000 g to eliminate cellular fragments and nuclear fraction in the pellet. Then supernatant was centrifuged 45 min at 50 000 g. The pellets with cellular membrane were resolubilized in RIPA buffer.
Aliquots of membrane cell extracts (30 μg protein) were separated by 7% SDS-PAGE and transferred on PVDF membrane. The western blots were probed with mouse monoclonal antibodies specific for CFTR (MM13-4, Millipore) 2 h at room temperature.

[2] = system: NF-κB transcriptional activity; assay: NF-κB firefly luciferase reporter assay, TNFα-stimulated cells; assay type: cell-based; conditions: TNFα 10 ng/ml
Experimental: All cells were transiently transfected by NF-κB firefly luciferase reporter and renilla luciferase reference. A. HeLa control cells (Ctr) were pre-treated with diluent (0.5%) or different doses of sulindac for 1 h and stimulated for 1 h with 10 ng/ml TNFα. After removal of TNFα, cells were incubated for 4 h with sulindac. Luciferase activity was analysed in protein extract. The NF-κB transcriptional activity in cells treated with sulindac+TNFα was expressed in percent of diluent+TNFα. B. Hela cells Wt, DF508 and Ctr were pre-treated with diluent (0.5%), ibuprofen (500 μM) or sulindac (500 μM) for 1 h and stimulated for 1 h with […] TNFα. After removal of TNFα, cells were incubated for 4 h with pharmacological treatment. The NF-κB transcriptional activity in cells treated with ibuprofen+TNFα and sulindac+TNFα was expressed in percent of diluent+TNFα. Results of at least three independent experiments, means±SEM. Unilateral paired t test: * p<0.02
All cells were pre-treated with diluent (0.5%), sulindac ([…]) or sulindac sulfone (250 μM) for 1 h and stimulated for 1 h with 10 ng/ml TNFα. […]
Plasmid Constructs and Transient Transfection To assay the transcriptional activity of NF-κB, pNF-κBLuc, a luciferase reporter plasmid containing five sequential NF-κB binding sites upstream of a minimum promoter element, NF-κB-Luc (Stratagene), was used. Transcriptional activity of the IL-8 promoter was evaluated with reporter constructs consisting of the IL-8 promoter (−133 bp from the transcription start site) fused to the Luciferase gene, kindly provided by Naofumi Mukaida. […]
(§1) Cells were lysed with the Passive Lysis Buffer (Promega), and luciferase activity in the cellular extracts was determined by the Dual Luciferase Assay System (Promega) using a luminometer (Tristar; Berthold). The results were normalized to those obtained with the Renilla luciferase reference plasmid used to control the transfection efficiency, and the values were expressed as luminescence intensity (Luciferase/Renilla). […]
The transcriptional activity of NF-κB and IL-8 promoter was measured as described before. […]

[3] = system: NF-κB transcriptional activity; conditions: CF cells; recent study [5]; cited from earlier work
[4] = system: IL-8 production; conditions: CF cells; recent study [5]; cited from earlier work
[5] = system: cyclooxygenase; conditions: cited from earlier work
[6] = system: IL-8 promoter; assay: IL-8 promoter luciferase reporter / IL-8 mRNA qPCR, TNFα-stimulated cells; assay type: cell-based; conditions: 250 μM; TNFα 10 ng/ml; HeLa CFTR wt and CFTR DF508 (FIG. 8B)
Experimental: Cells were transiently transfected by the short IL-8 promoter-firefly luciferase reporter and renilla luciferase reference and inflammation was induced by 10 ng/ml TNFα for 1 h. A. HeLa cells were pre-treated with diluent or different doses of sulindac 1 h before inflammation induction and 4 h after. IL-8 promoter activity in cells treated with sulindac+TNFα was expressed in percent of diluent+TNFα. B. After treatment, HeLa Ctr cells were lysed with TRIzol (Invitrogen). Total RNA was extracted, and 1 μg of total RNA was reverse transcribed with a reverse transcription kit. IL-8 mRNA expression was quantified by real-time quantitative PCR (qPCR). The comparative threshold cycle (CT) method was used for relative quantification of PCR products after IL-8 was normalised to TBP (ΔCt=CtIL-8−CtTBP). […] C After treatment, IL-8 in supernatant was measured by ELISA. The IL-8 stimulation of cells treated with test drug +TNFα were expressed as fold compared to drug −TNFα. […]
as §1

Chain of CFTR (P13569 whole entry): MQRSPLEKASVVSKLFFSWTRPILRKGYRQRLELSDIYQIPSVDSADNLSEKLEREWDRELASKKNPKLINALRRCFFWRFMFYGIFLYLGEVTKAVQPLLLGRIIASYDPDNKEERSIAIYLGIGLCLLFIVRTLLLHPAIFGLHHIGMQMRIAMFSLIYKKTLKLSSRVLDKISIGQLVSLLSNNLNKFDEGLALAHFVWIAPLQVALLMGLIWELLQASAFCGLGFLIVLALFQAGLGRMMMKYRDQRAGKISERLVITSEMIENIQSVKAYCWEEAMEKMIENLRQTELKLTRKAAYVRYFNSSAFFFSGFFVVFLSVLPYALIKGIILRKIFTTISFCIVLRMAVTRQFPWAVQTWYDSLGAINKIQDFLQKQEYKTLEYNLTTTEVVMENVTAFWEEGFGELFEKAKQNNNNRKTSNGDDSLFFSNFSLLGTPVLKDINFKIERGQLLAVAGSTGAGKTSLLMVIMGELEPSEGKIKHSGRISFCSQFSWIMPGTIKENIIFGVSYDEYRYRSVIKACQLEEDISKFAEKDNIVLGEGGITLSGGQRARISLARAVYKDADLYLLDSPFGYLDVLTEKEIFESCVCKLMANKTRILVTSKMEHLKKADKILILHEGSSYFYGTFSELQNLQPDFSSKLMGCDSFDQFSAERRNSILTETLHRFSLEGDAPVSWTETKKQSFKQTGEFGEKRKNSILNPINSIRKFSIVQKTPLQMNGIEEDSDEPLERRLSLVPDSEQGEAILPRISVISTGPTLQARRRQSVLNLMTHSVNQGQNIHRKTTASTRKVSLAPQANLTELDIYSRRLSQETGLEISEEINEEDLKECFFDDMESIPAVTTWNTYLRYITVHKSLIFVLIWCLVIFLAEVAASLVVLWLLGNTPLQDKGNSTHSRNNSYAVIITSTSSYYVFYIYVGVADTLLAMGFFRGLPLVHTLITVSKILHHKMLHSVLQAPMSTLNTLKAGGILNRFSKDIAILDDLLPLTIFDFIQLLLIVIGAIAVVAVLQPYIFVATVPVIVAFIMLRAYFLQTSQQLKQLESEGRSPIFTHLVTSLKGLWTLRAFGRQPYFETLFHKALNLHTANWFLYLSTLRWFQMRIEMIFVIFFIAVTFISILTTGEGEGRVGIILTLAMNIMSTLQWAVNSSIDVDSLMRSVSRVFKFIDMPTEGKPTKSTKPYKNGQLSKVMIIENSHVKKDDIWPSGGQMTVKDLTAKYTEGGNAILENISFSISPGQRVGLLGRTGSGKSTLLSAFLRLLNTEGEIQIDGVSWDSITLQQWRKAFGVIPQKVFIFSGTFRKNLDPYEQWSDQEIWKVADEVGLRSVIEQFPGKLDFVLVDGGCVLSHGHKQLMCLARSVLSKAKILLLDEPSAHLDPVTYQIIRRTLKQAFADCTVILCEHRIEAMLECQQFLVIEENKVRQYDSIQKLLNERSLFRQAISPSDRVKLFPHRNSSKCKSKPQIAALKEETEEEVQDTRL

Ratio CFTR C/C + B (%) ([1]; HeLa CFTR WT, Ctr. 65.1)	SMILES	mature form of CFTR (Western blot) ([1]; WT-CFTR HeLa cells)	transcriptional activity of NF-κB ([2]; BEAS-2B and HeLa cells with wt or deltaF508-CFTR (FIGS. 1A, B))	transcriptional activity of NF-κB [3]	IL-8 production [4]	inhibition of cyclooxygenase [5]	NF-κB transcriptional activity ([2]; 250 μM, HeLa CFTR wt and CFTR DF508 (FIG. 8A))	IL-8 promoter activity [6]
80.6	CC(C)Cc1ccc(C(C)C(=O)O)cc1 (stereo not drawn) [ibuprofen]	significant increase of mature form of CFTR	inhibits transcriptional activity of NF-κB similar to ibuprofen	inhibits the transcriptional activity of NF-κB	not accompanied by a decreased of IL-8 production			
	CSc1ccc(/C=C2/C(C)=C(CC(=O)O)c3cc(F)ccc32)cc1 [sulindac sulfide]					inhibits cyclooxygenase activity		
	C=S(C)(=O)c1ccc(/C=C2/C(C)=C(CC(=O)O)c3cc(F)ccc32)cc1 (stereo not drawn) [sulindac sulfone]					inactif on COX; also recorded: does not inhibit cyclooxygenase	inhibits the transcriptional activity of NF-κB	at least as effective as sulindac; also recorded: inhibits
